Source: publication PMC11765394, “Structure-Based Discovery of MolPort-137: A Novel Autotaxin Inhibitor That Improves Paclitaxel Efficacy” (International Journal of Molecular Sciences, 2025)

Experiments:
[1] = molecular target: T1, autotaxin (ATX) (Homo sapiens, UniProt Q13822); test: biochemical; set-up: FS-3 fluorogenic substrate hydrolysis by purified recombinant human ATX, fluorescence read-out
T1 construct: gene ENPP2
Description: The purification of recombinant human ATX was carried out as reported earlier. The potential inhibitory effect of the hits identified through molecular modeling was assessed using the FS-3 assay, which measures fluorescence when the non-natural lipid-like FRET-established substance FS-3 (Echelon Biosciences, Salt Lake City, UT, USA) is hydrolyzed by ATX. A 60 μL volume of reaction mixture containing ATX assay buffer (pH 8.0, containing 10 μM BSA, 50 mM TRIS, […], 5 mM KCl, 1 mM CaCl2, and 1 mM MgCl2) was added to each well of a black-wall 96-well plate. Recombinant ATX was then added to achieve a final concentration of 4 nM. The compounds were dissolved in DMSO and transferred to a 96-well plate in technical triplicate. Single-dose testing was performed with a final well concentration of 10 μM, while dose–response assays involved eight different concentrations of the test compound. FS-3 was then added to achieve a concluding well strength of 1 μM, and fluorescence was quantified on a CLARIOstar Plus plate reader (BMG Labtech, Ortenberg, Baden-Württemberg, Germany) for two hours, with scans every two minutes at excitation/emission wavelengths of 485/528 nm. Percent activity was calculated relative to DMSO-treated control wells. […] Inhibition tests were conducted to target ATX-facilitated hydrolysis of FS3 (LPC homolog) using 15 compounds at 10 μM. Compounds inhibiting more than 50% of FS-3 hydrolysis were classified as hits. […] BMP-22, a known ATX inhibitor, served as a control with an IC50 of 0.2 ± 0.0 μM, consistent with reported values.

[2] = molecular target: T1, autotaxin (ATX); test: FS-3 fluorogenic substrate hydrolysis assay with […] purified recombinant human ATX; type: biochemical

Compound `Cc1cc(NC(=O)Cn2nc3c(Oc4ccccc4C)nc4ccccc4n3c2=O)ccc1Br` [MolPort-311] has an inhibition at 10 µM [1] of 5.23%.

For `Cc1ccc(NC(=O)Cn2nc3c(Oc4cccc(C)c4C)nc4ccccc4n3c2=O)cc1C` [MolPort-240], the inhibition at 10 µM [1] was 2.06%.

For `CCCCCCCCCCCCCCCc1ccc(CP(=O)(O)O)cc1` [BMP-22, reference compound], the IC50 [2] was 200 nM.

Compound `Cc1cc(C)cc(NC(=O)Cn2c(=O)nc(N3CCCC(C)C3)c3ccccc32)c1` (centres unmarked) [MolPort-616] has an inhibition at 10 µM [1] of 26.4%.

Compound `Cc1cc(C)cc(-n2c(CN3CCN(C(=O)Nc4ccccc4F)CC3)nc3cccnc32)c1` [MolPort-904] has an inhibition at 10 µM [1] of 29.7%.

Work on `CCc1cccc(NC(=O)Cn2nc3c(Oc4ccccc4C)nc4ccccc4n3c2=O)c1` [MolPort-674] yielded an inhibition at 10 µM [1] of 7.1%.

`COc1cc(C=C2N=C(c3ccc(F)cc3)OC2=O)cc(I)c1OCc1cccc(C)c1` [MolPort-839] was tested, and the inhibition at 10 µM [1] was 10.8%.

MolPort-137 gave an IC50 [2] of 1600 ± 200 nM.

`Cc1cc(-n2c(SCC(=O)Nc3ccc(F)c(F)c3)nc3n[nH]c(C)c3c2=N)ccc1Cl` [MolPort-323] showed an inhibition at 10 µM [1] of 5%.

Compound `Cc1cc(F)ccc1NC(=O)c1cnn2c(=O)c3c(n(C)c12)CCN(Cc1ccccc1)C3` [MolPort-137] has an inhibition at 10 µM [1] of 75.9%.

Work on `COc1ccc(NC(=O)CSc2nc(=O)c3c(C)cc(C)nc3n2-c2cccc(C)c2C)cc1` [MolPort-072] yielded an inhibition at 10 µM [1] of 42%.

Compound `Cc1cccc(NC(=O)Cn2nc3c(Oc4ccccc4C)nc4ccccc4n3c2=O)c1` [MolPort-161] has an inhibition at 10 µM [1] of 5.16%.

`Cc1cccc(-n2c(SCC(=O)Nc3ccc(C)c(C)c3)nc3[nH]nc(C)c3c2=N)c1` [MolPort-144] showed an inhibition at 10 µM [1] of -13.5%.

For `Cc1ccc(-c2noc(-c3nnn(Cc4nc(-c5ccccc5)oc4C)c3C)n2)cc1C` [MolPort-122], the inhibition at 10 µM [1] was 15.5%.

`Cc1cccc(CNC(=O)c2c(O)c3cccnc3n(-c3cccc(F)c3)c2=O)c1` [MolPort-914] showed an inhibition at 10 µM [1] of 7.61%.

Work on `COc1ccccc1-c1nc(Cn2nnc(-c3nc(-c4ccc(C)cc4)no3)c2C)c(C)o1` [MolPort-185] yielded an inhibition at 10 µM [1] of 33.7%.

`Cc1ccccc1NC(=O)c1nnn(Cc2nc(-c3cccc(Cl)c3)oc2C)c1C` [MolPort-495] showed an inhibition at 10 µM [1] of 27.2%.
